The text below walks through data of patent publication US20080227128A1, “Resonance Energy Transfer System and Method” (Mount Sinai School of Medicine of New York University, priority 2004, published 2008).

Read-outs that look alike come from different tables or passages of the source. *: point of attachment. Biotin = O=C1N[C@H]2[C@H](CS[C@H]2CCCCC(=O)*)N1

For one experiment, the system named is MEK. Kind of experiment: In vitro kinase assay with purified MEK. Format: biochemical. The following applies: for phosphorylation in the presence of purified MEK: substrate.
The subject of a further experiment is L1-BRET construct. Kind of experiment: BRET assay, L1-BRET construct transfected in HEK-293 cells. The format is cell-based, Human. Conditions: for effect on the BRET ratio of the L1-BRET construct: HEK-293 cells; for effect on the BRET ratio of the L1-BRET construct / effect on the BRET ratio of EGF-stimulated cells: n=5; for effect on the BRET ratio of EGF-stimulated cells: src-family kinase inhibitors; for effect on the decrease in BRET ratio following EGF stimulation: pre-treating cells, genistein 100 μM. In general terms: BRET reads energy transfer from a luciferase to a nearby fluorophore.

A further experiment concerns KGGKY construct. Briefly: BRET assay, Src pathway reporter (KGGKY construct) in HEK-293 cells. Format: cell-based, Human. The procedure: Using a target sequence derived from a tyrosine in the L1-CAM cytoplasmic tail, a reporter was generated encoding a 12 amino acid insert, including a terminal tyrosine ([…], SEQ ID NO: 13). […] However, the Src-family inhibitor PP1 causes an increase in the BRET efficiency at doses above 20 μM while a related inhibitor PP2 has no effect at similar doses (FIG. 9B, results are shown mean±standard deviation, *P<0.01). […] Fibroblasts derived from wild-type (+/+src) or Src-null (−/−src) mice were treated with FGF, which activates indirectly Src-family kinases.

Another experiment relates to PKA construct. Kind of experiment: BRET assay, PKA construct in HEK-293 cells. Format: cell-based, Human. Conditions: kinase inhibitors. From the text:
A reporter was generated for PKA based on a target domain derived from fish connexin35 (Mitropoulou et al. (2003) J. Neurosci. Res. 72:147-157). The PKA insert target sequence ([…]) contains a carboxy-terminal serine phosphorylation target.

The next experiment deals with L1-SLADY BRET. Briefly: BRET assay, L1-SLADY BRET reporter in HEK-293 cells. Format: cell-based, Human. From the text: Another MAP kinase pathway reporter was constructed and tested using the methods described above and is outlined in the L1-SLADY BRET Data shown in FIGS. 5A, 5B, and 5C. The results of these figures are consistent with the other MAP kinase pathway data showing that the BRET system can be used as a MAP kinase pathway reporter.

Experiment [1] has as its system ankyrin B recruitment to the plasma membrane. Briefly: Ankyrin B recruitment to the plasma membrane (immunofluorescence), HEK-293 cells with L1-CAM and ankyrin-B GFP. Format: cell-based, Human. As to the method:
HEK-293 cells were transfected with cDNA encoding an amino-terminal myc-epitope tagged full-length wild-type neuronal adhesion protein L1-CAM and a carboxy-terminal GFP-tagged ankyrin B construct using lipofectamine reagents. […] For immunolocalization, cells were fixed for 10 min using 1% (w/v) paraformaldehyde in 60 mM Pipes, 25 mM Hepes, 10 mM EGTA, and 2 mM MgCl2. Staining was performed as described previously (Felsenfeld et al. (1999) Nat. Cell Biol. 1:200-6). Briefly, ankyrin B was detected by indirect immunofluorescence using a rabbit anti-GFP polyclonal Ab and a donkey anti-rabbit Ab conjugated to indodicarbocyanince Cy5. L1-CAM was detected by indirect immunofluorescence using a mouse anti-myc monoclonal Ab and a donkey anti-mouse Ab conjugated to indocarbocyanine Cy3. […] Images were analyzed using NIH ImageJ (National Institutes of Health, Bethesda, Md.). […] Signal maximum for ankyrin staining at the junction between cells was determined at the position of the maximal L1-CAM staining to ensure that membrane rather than juxtamembrane staining was quantified. Minima were determined from the regions of the line overlapping the cytoplasm of either of the two cells. Membrane localization index was determined using the equation index=max/(max-min) as described (Gil et al. (2003) J. Cell Biol. 162:719-30). […]

In the next experiment the test system is endogenous L1-CAM. Briefly: Anti-phosphotyrosine immunoblot of endogenous L1-CAM, NGF-stimulated ND7 cells. Format: cell-based. Conditions: 100 μM. As to the method: (§1) Near-confluent cultures of HEK-293 cells, stably transfected with either an acceptor-insert-donor construct, or CHIM construct (SEQ ID NO: 2); or ND7 cells were harvested with trypsin-EDTA and resuspended to a density of 6×10^5 cells/ml. Aliquots (5 ml) of cell suspensions were added to 100 mm cell culture dishes (Corning Incorporated Life Sciences, Acton, Mass.) and incubated for 12 hrs at 37° C. Stably transfected HEK-293 cells were treated with genistein for 4 hrs at 37° C; and ND7 cells were treated with 100 μM PD98059 for 1 h and with 100 ng/ml NGF for 15 min. […] The protein concentrations of the supernatants were determined by using the BCA (bicinchoninic acid) protein assay (Pierce Chemical Company, Rockford, Ill.). […] Immobilized protein A beads were washed and resuspended in Laemnuli buffer, analyzed by SDS-PAGE, and transferred to nitrocellulose membrane. […]
To determine whether the MAPK signaling cascade can modulate tyrosine phosphorylation of full-length L1-CAM, the effect of MEK inhibitors was examined on ND7 cells stimulated with NGF. Cell lysates were immunoprecipitated with an anti-L1-CAM Ab and subsequently analyzed by immunoblotting (FIG. 2F) with an anti-phosphotyrosine Ab to detect phosphorylated L1-CAM (upper blot). […]
A general note: Immunoblotting shows a protein as a band on a membrane.

Experiment [2] concerns L1-BRET construct in ND7 cells. Briefly: BRET assay, L1-BRET construct in ND7 cells. The format is cell-based. An excerpt:
(§2) To confirm that the effects of MEK inhibitors were due to the phosphorylation state of […] (SEQ ID NO: 1), the effect of PD98059 and U0126 was examined on the BRET ratio of the […] (SEQ ID NO: 3), […] (SEQ ID NO: 4), and […] (SEQ ID NO: 5) variant constructs. […] To determine whether components of the MAPK cascade are responsible for phosphorylating the FIGQY (SEQ ID NO: 12) sequence in other cell types, downstream of other RTKs, L1-BRET construct was transiently transfected into ND7 (neuroblastoma) and PC12 (pheochromocytoma) cells (Dunn et al. (1991) Brain Res. 545:80-86; Pang et al. (1995) J. Biol. Chem. 270:13585-13588).

The test system of experiment [3] is L1-BRET construct in PC12 cells. Briefly: BRET assay, L1-BRET construct in PC12 cells. Format: cell-based, rat. Conditions: pre-treated.
Excerpt: as §2

Experiment [4] has as its system […], […], […] variant constructs. Format: cell-based, Human.
Another experiment deals with L1-BRET protein. Briefly: Anti-phosphotyrosine immunoblot of L1-BRET protein, stably transfected HEK-293 cells. Format: cell-based, Human. Conditions: pretreated with genistein 100 μM. The procedure:
as §1
Immunoblot analysis was performed (FIG. 1G). Cell lysates were immunoprecipitated with an anti-GFP Ab and subsequently analyzed by immunoblotting with an anti-phosphotyrosine Ab to detect phosphorylated BRET constructs (upper blot). […] There was no phosphotyrosine detected in the CHIM construct (SEQ ID NO: 2) in the presence or absence of genistein, consistent with the idea that phosphorylation of the FIGQY (SEQ ID NO: 12) tyrosine is responsible for the changes observed in the spectrum of L1-BRET.

In another experiment the test system is myr-L1-BRET. Kind of experiment: BRET assay, myristoylated construct (myr-L1-BRET) in HEK-293 cells. Format: cell-based, Human. The following applies: 20 μM U0126.
The subject of another experiment is myr-FIGQH, myr-FIGQF. Conditions: 20 μM U0126; tyrosine mutated to histidine or phenylalanine.
The subject of experiment [5] is cerebellar granular neurons. Kind of experiment: Neurite outgrowth assay on Ng-CAM. Format: cell-based, mouse. Conditions: 10 μM U0126. As to the method: (§3) Neurite outgrowth experiments were performed as described (Gil et al. (2003) J. Cell Biol. 162:719-30) with slight modification. A 1 cm-diameter circle in a 35 mm petri dish (Becton Dickinson) was coated with poly-L-lysine (5 μg/ml in phosphate-buffered saline (PBS) from Speciality Media, Phillipsburg, N.J.) for 1 hr at room temperature. After several washes with PBS, the coated area was dried under the hood. Aliquots of 1 μl of neural-glial cell adhesion molecule (Ng-CAM, Gil et al. (2003) J. Cell Biol. 162:719-30) at 50 μg/ml or laminin at 30 μg/ml (Becton Dickinson) were spotted on the coated area. Dishes were incubated for 1 hr at room temperature, washed several times with PBS and then blocked with 1% (w/v) bovine serum albumin (BSA). Cerebellar cells were prepared from P2-P4 mouse and plated on the prepared dishes in BME/B27/glucose/glutamine/Pen-Strep media at a cell density of 3×10^5 cells/ml. Peptides and U0126 were diluted in DMSO (10 mg/ml for peptides, 13 mM for U0126) and further diluted in media (final concentration 10 μg/ml peptide; 10 μM U0126) which was added to the cultures when the cells were plated. Cultures were incubated for 2 days and fixed with 4% paraformaldehyde.

Experiment [6] concerns cerebellar granular neurons. Briefly: Neurite outgrowth assay on laminin. The format is cell-based, mouse. Conditions: 10 μM U0126. As to the method: as §3

Protocol for myr-FIGQH, myr-FIGQF: (§4) Near-confluent cultures of HEK-293 cells were harvested with trypsin-EDTA (0.05% trypsin, 0.53 mM EDTA; Invitrogen Corporation, Carlsbad, Calif.) and resuspended to a density of 2.5×10^5 cells/ml. Aliquots (200 μl) of cell suspensions were added to white 96-well culture plates (CulturPlate™; PerkinElmer Life Sciences, Boston, Mass.) and incubated for 12 hrs at 37° C. HEK-293 cells were transfected with 0.1 μg of DNA/well using lipofectamine reagents (Lipofectamine Plus and Lipofectamine™; Invitrogen) according to the manufacturer's instructions. After incubation of plates for 48 hrs at 37° C., the cells were washed once with warm Dulbecco's Modified Eagle's Medium (D-MEM) without phenol red (Invitrogen) supplemented with 25 mM Hepes (Invitrogen). […] The plates were immediately counted using the Fusion Universal Microplate Analyzer (PerkinElmer Life Sciences).
(§5) Bioluminescence resulting from Rluc emission was counted at 410 nm using a 370-450 nm band pass filter and the fluorescence of GFP2 was counted at 515 nm using a 500-530 nm band pass filter. The efficiency of energy transfer between Rluc and GFP2 is determined by dividing acceptor emission intensity (GFP2) by donor emission intensity (Rluc). […]
Protocol for myr-L1-BRET: as §4, §5

Turning to Biotin-ADPDHDHTGFLTEYVATRW-OH [MEKSBS], the “phosphorylation in the presence of purified MEK” value in the experiment with MEK is “phosphorylated”.

`COC(=O)C=Cc1cc(O)ccc1O` [erbstatin analog, methyl 2,5-dihydroxycinnamate]: the “effect on the BRET ratio of the L1-BRET construct” value in the experiment on L1-BRET construct is on record as “increased the BRET ratio of the L1-BRET construct in a dose-dependent manner”.

As to `Cc1ccc(-c2nn(C(C)(C)C)c3ncnc(N)c23)cc1` [PP1], the “effect on the BRET ratio of EGF-stimulated cells” value in the experiment with L1-BRET construct was “had no effect on the BRET ratio”. Also, the “doses causing an increase in the BRET efficiency” value in the experiment with KGGKY construct (dose response) is listed as “above 20 μM”. Moreover, in the experiment with PKA construct, the “effect on FRET efficiency of the PKA reporter” value is “had no effect on FRET efficiency”.

In the case of `CC(C)(C)n1nc(-c2ccc(Cl)cc2)c2c(N)ncnc21` [PP2], in the experiment with L1-BRET construct, the “effect on the BRET ratio of EGF-stimulated cells” value is reported as “had no effect on the BRET ratio”. Moreover, in the experiment with KGGKY construct (doses similar to PP1 (above 20 μM)), the “effect on BRET efficiency at similar doses” value is given as “has no effect”.

Regarding `O=c1c(-c2ccc(O)cc2)coc2cc(O)ccc12` [daidzein], the “effect on the decrease in BRET ratio following EGF stimulation” value in the experiment on L1-BRET construct is listed as “had no effect”.

On to `COc1cccc(-c2cc(=O)c3ccccc3o2)c1N` [PD98059], for which the “effect on the decrease in BRET ratio (FIG. 5A, 5B)” value in the experiment with L1-SLADY BRET is listed as “reverses the decrease in BRET ratio”. In experiment [1] (100 μM PD98059 with 100 ng/ml EGF), the “effect on the EGF-induced decrease in ankyrin B recruitment” value was “reversed”. For the same compound, in the experiment on endogenous L1-CAM, the “level of tyrosine phosphorylation of endogenous L1-CAM” value is “marked decrease in the level of tyrosine phosphorylation”. In addition, in the experiment on L1-BRET construct, the “effect on the BRET ratio of the L1-BRET construct” value is listed as “increased the BRET ratio of the L1-BRET construct in a dose-dependent manner”. In addition, in experiment [2], the “change in the BRET ratio of the L1-BRET construct in ND7 cells” value (from here on “change in the BRET ratio … in ND7 cells”) is listed as “increases in the BRET ratio”. The “change in the BRET ratio of the L1-BRET construct in PC12 cells” value in experiment [3] is recorded as “increases in the BRET ratio”. The “effect on this reporter” value in the experiment with KGGKY construct (100 μM) is “no detectible effect”. Also, in [4], the “change in the BRET ratio of the variant constructs with MEK inhibitors” value is “no change in the BRET ratio”.

`O=c1c(-c2ccc(O)cc2)coc2cc(O)cc(O)c12` [genistein]: the “effect on the decrease in BRET ratio (FIG. 5A, 5B)” value in the experiment with L1-SLADY BRET is recorded as “reversing the decrease in BRET ratio”. For the same compound, in the experiment with L1-BRET construct, the “effect on the decrease in BRET ratio following EGF stimulation” value is on record as “reversed”. Further, the “change in the BRET ratio … in ND7 cells” value in [2] is “increase in the BRET ratio”. For the same compound, the “effect on EGF-dependent decrease in BRET efficiency” value in the experiment on KGGKY construct (100 μM genistein, 100 ng/ml EGF) is “reversed”. The “tyrosine phosphorylation of L1-BRET protein” value in the experiment on L1-BRET protein was “completely inhibited”.

In the case of “KPLGSDDSLADY [L1-derived peptide phosphorylated by purified MEK]”, the “phosphorylation in the presence of purified MEK” value with MEK was “phosphorylated”.

Turning to “EGF: Epidermal growth factor (EGF), obtained from Sigma-Aldrich”, the “level of ankyrin B recruited to the plasma membrane” value in [1] (100 ng/ml EGF) was “decrease in the level of ankyrin B recruited to the plasma membrane”.

On to `N#CC(=C(/N)Sc1ccccc1N)/C(C#N)=C(\N)Sc1ccccc1N` [U0126], for which the “change in BRET ratio of the myristoylated construct following inhibition of MEK” value with myr-L1-BRET is “increase in BRET ratio”. The “change in BRET ratio of mutated myristoylated constructs following inhibition of MEK” value with myr-FIGQH, myr-FIGQF is recorded as “abolishes the increase in BRET ratio”. Moreover, in experiment [5], the mean neurite length entry was “reduces mean neurite length”. In addition, the “effect on the BRET ratio of the L1-BRET construct” value in the experiment on L1-BRET construct is listed as “increased the BRET ratio of the L1-BRET construct in a dose-dependent manner”. The “change in the BRET ratio … in ND7 cells” value in experiment [2] is listed as “increases in the BRET ratio”. Further, in the experiment on MEK (purified MEK), the “effect on the increase in phosphorylation of MEKSBS and […] peptide” value was “inhibited”. The “axon growth on laminin” value in experiment [6] is recorded as “inhibited”. Moreover, the “change in the BRET ratio of the L1-BRET construct in PC12 cells” value in experiment [3] is reported as “increases in the BRET ratio”. Further, in [4] (100 μM), the “change in the BRET ratio of the variant constructs with MEK inhibitors” value is reported as “no change in the BRET ratio”.
